Earlier results in US20070149578A1, “Combination Therapy” (Pfizer, Inc., priority 2000, published 2007).

Columns and labels:
calcium channel = conditions: see International Patent Application Number PCT/EP94/02697
[1] = test system: smooth muscle cell migration; conditions: see International Patent Application Number PCT/EP95/00847

In the case of `CCOC(=O)C1=C(COCCN)NC(C)=C(C(=O)OC)[C@@H]1c1ccccc1Cl` (single isomer, unassigned) [S(−) isomer], the “calcium channel blocking activity” value (calcium channel) is listed as “substantially confined to the S(−) isomer”.
For `CCOC(=O)C1=C(COCCN)NC(C)=C(C(=O)OC)[C@H]1c1ccccc1Cl` (single isomer, unassigned) [R(+) isomer], the “calcium channel blocking activity” value (calcium channel) is given as “little or no calcium channel blocking activity” and the “inhibitor of smooth muscle cell migration” value [1] is given as “potent inhibitor”.
